17 compounds from PubChem BioAssay (NCI) can be followed below.

Common to all, as to assay: NCI tumour cell line growth inhibition, 48 h
Test [1] deals with LOX IMVI melanoma.
The test system of test [2] is NCI-H460 lung.
The subject of test [3] is ACHN renal.
In test [4] the test system is OVCAR-5 ovarian.
Test [5] concerns T-47D breast.
Test [6] concerns UACC-62 melanoma.
In test [7] the test system is 786-0 renal.

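Protocol summary: plate cells (96-well), add compound at 5 concentrations, incubate 48 h, interpolate endpoints linearly. TGI is the concentration that stops growth completely.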 Bounds are passed on as bounds.

Take `COn1cc(C=O)c2ccccc21`: the TGI in test [1], in test [2], in test [3], in test [4], in test [5] and in test [6] was greater than 100 µM in each case. The TGI in test [7] was greater than 100 µM.

In the case of `CO[C@H]1[C@@H](O)[C@@H](C)O[C@@H](O[C@H]2CC[C@@]3(C)[C@H](CC[C@@H]4[C@@H]3CC[C@]3(C)[C@@H](C5=CC(=O)OC5)[C@@H](OC(C)=O)C[C@]43O)C2)[C@@H]1O`, the TGI amounted to 0.194 µM in test [1]; 0.0617 µM in test [2]; 0.0575 µM in test [3]; 0.214 µM in test [4]; 0.435 µM in test [5]; 0.215 µM in test [6]. In addition, the TGI in test [7] came out at 0.067 µM.

On to `CC(=O)c1csc2c1C(=O)c1scc(C(C)=O)c1C2=O`, for which the TGI in test [1] is 2.9 µM; in test [2], 2.35 µM; in test [3], 3.24 µM; in test [4], 3.45 µM; in test [5] it was 1.2 µM; in test [6], 3.56 µM. This compound yielded a TGI in test [7] of 4.12 µM.

With `CCC1c2[nH]c3ccccc3c2C[C@H]2C(=O)NC(COC(C)(C)C)C(=O)N12` (some centres undefined), the TGI in test [1], in test [2], in test [3], in test [4], in test [5] and in test [6] was greater than 100 µM each time. Further, the TGI in test [7] is greater than 100 µM.

For `CC12CCC(C(=O)OC1=O)C2(C)C` (centres undefined), the TGI in test [1], in test [2], in test [3], in test [4], in test [5] and in test [6] was greater than 100 µM in each case. Also, the TGI in test [7] is greater than 100 µM.

For `COc1cc(/C=C2\C[C@H]3[C@@H]4CC=C5C[C@@H](O)CC[C@]5(C)[C@H]4CC[C@]3(C)C2=O)cc(OC)c1OC`, the TGI in test [1] was 53.8 µM; in test [2], greater than 100 µM; in test [3] it was greater than 100 µM; in test [4], greater than 100 µM; in test [5], 64.2 µM; in test [6], greater than 100 µM. The same compound showed a TGI in test [7] of 89.5 µM.

In the case of `COc1cccc(OC)c1/C=C1\OC(=O)c2cccc(OC)c21`, the TGI in test [1] was greater than 100 µM; in test [2] it was greater than 100 µM; in test [3] it was greater than 100 µM; in test [4] it was greater than 100 µM; in test [5] it was greater than 100 µM; in test [6] it was greater than 31 µM. Also, in test [7], the TGI was greater than 100 µM.

`CN(C)C1=Nc2ccccc2C(=S)N2CSCC12` (centres undefined): the TGI in test [1], in test [2], in test [3], in test [4], in test [5] and in test [6] was greater than 100 µM in each case. The TGI in test [7] came to 62.2 µM.

For the compound `Cc1cccc2c1[C@]13OC(C)[C@]4(C)CC5OC(=O)[C@@]1(C)[C@@H]5[C@]34C(=O)O2` (some centres undefined), the TGI in test [1], in test [2], in test [3], in test [4], in test [5] and in test [6] was greater than 100 µM each time. The TGI in test [7] was greater than 100 µM.

`Cc1cccc(/C=N/NC(=S)NCCc2ccccn2)n1`: the TGI in test [1] was greater than 100 µM; in test [2], greater than 100 µM; in test [3], greater than 74.5 µM; in test [4] it was greater than 100 µM; in test [5], greater than 100 µM; in test [6] it was 56.7 µM. For the same compound, the TGI in test [7] was greater than 100 µM.

Consider `CN1CCOC1(C)CO` (centres undefined), for which the TGI in test [1], in test [2], in test [3], in test [4], in test [5] and in test [6] was greater than 100 µM in each case. Further, the TGI in test [7] was greater than 100 µM.

As for `Cc1cc(C)cc(C(=N)c2ccccc2Cc2cccc3ccccc23)c1`, the TGI is 33 µM in test [1]; 29.5 µM in test [2]; 31.2 µM in test [3]; 53.5 µM in test [4]; 46.3 µM in test [5]; 29 µM in test [6]. Moreover, the TGI in test [7] amounted to 31.8 µM.

Take `Cc1ccc(S(=O)(=O)C2=Cc3ccc(C(F)(F)F)cc3C2(O)c2cccc(C(F)(F)F)c2)cc1` (centres undefined): the TGI in test [1] is 3.52 µM; in test [2], 6.9 µM; in test [3], 7.64 µM; in test [4], 5.07 µM; in test [5], 11 µM; in test [6], 5.71 µM. Besides, in test [7], the TGI amounted to 3.96 µM.

Consider `CCN(CC)CCn1nc(N)c2nc3cc(Cl)ccc3nc21`, for which the TGI in test [1], in test [2], in test [3], in test [4], in test [5] and in test [6] was greater than 100 µM each time. In test [7], this compound gave a TGI greater than 100 µM.

As to `CCC1OC2C(CC=C(C)C)=C3OC(C)(O)C(C)(CC)C(OC(=O)c4ccccc4)C3=C3OC(=O)C=C1C32` (centres undefined), the TGI is 46.2 µM in test [1]; greater than 100 µM in test [2]; greater than 100 µM in test [3]; greater than 100 µM in test [4]; greater than 100 µM in test [5]; greater than 100 µM in test [6]. Moreover, the TGI in test [7] was greater than 100 µM.

On to `CCN(CC)c1ccc2cc(-c3nnc(-c4ccccc4)o3)c(=O)oc2c1`, for which the TGI in test [1] was greater than 100 µM; in test [2] it was greater than 51.3 µM; in test [3], greater than 100 µM; in test [4], greater than 100 µM; in test [5], greater than 71.4 µM; in test [6], greater than 100 µM. In test [7], this compound gave a TGI greater than 82.1 µM.

For the compound `C=CCNC1=C2C[C@@H](C)C[C@@H](OC)[C@@H](OC(=O)CCCN)[C@H](C)/C=C(\C)[C@@H](OC(N)=O)[C@H](OC)/C=C\C=C(/C)C(=O)NC(=CC1=O)C2=O`, the TGI is greater than 47.3 µM in test [1]; 59 µM in test [2]; 38.9 µM in test [3]; 31.8 µM in test [4]; greater than 67.2 µM in test [5]; 31.8 µM in test [6]. The compound further showed a TGI in test [7] of 42.2 µM.
